Laboratory results reported in patent publication US6451785B1, “Beta lactams as antiproliferative agents” (SmithKline Beecham Corporation, priority 1997, dated 2002).

Key:
[1] = tested on: CoA-IT; test: CoA-IT activity assay in U937 cell microsomes; assay type: biochemical
From the text: The following is a method to measure CoA-IT activity and the effects of compounds on CoA-IT activity. The assay is based upon mixing cellular material containing CoA-IT activity with a stable lyso phospholipid such as […] and measuring the production of phospholipid product such as […] occurring in the absence of added CoA or CoA-fatty acids.
Any inflammatory cell that contains high levels of CoA-IT activity can be used, such as neutrophils, macrophages or cell lines such as U937 cells. U937 cells were obtained from American Type Culture Collection and grown in RPMI-1640 media (Gibco, Grand Island, N.Y.) supplemented with 10% fetal bovine serum (Hyclone, Logan, UT) at 37° C., 5% CO2. Cells were grown without differentiation (basal state) by any agent, such as dimethyl sulfoxide. As used herein, “inflammatory cells” include, but are not limited to neutrophils, macrophages, monocytes, lymphocytes, eosinophils, basophils, and mast cells.
Microsomes were prepared using standard techniques. In this case, cells were washed with a buffer of 250 mM sucrose, 10 mM Tris, 1 mM EGTA, 1 mM MgCl2, pH 7.4 and ruptured by N2 cavitation (750 psi, 10 minutes). The ruptured cells were centrifuged 1000×g, 5 minutes. The resulting supernatant was centrifuged at 20,000×g,˜20 minutes. Microsomes were prepared from this supernatant by centrifugation at 100,000×g, 60 minutes. The resulting pellet was washed once with assay buffer (150 mM NaCl, 10 mM Na2KPO4, 1 mM EGTA, pH 7.4), recentrifuged and the pellet resuspended in assay buffer (4-20 mg protein/ml) and was stored at −80° C. until assayed.
CoA-II activity was measured in 1.5 ml centrifuge tubes in a total volume of 100 ul. Microsomes were diluted in assay buffer to the desired protein concentration (6-20 ug/tube). The reaction was initiated by addition of [3H]1-alkyl-2-lyso-sn-glycero-3-phosphocholine (GPC) (˜0.1 uCi/tube) and 1 μM final cold 1-alkyl-2-lyso-GPC in assay buffer with 0.25 mg/ml fatty acid-poor bovine serum albumin (BSA) (Calbiochem, La Jolla, Calif.). [3H]1-alkyl-2-lyso-GPC, approximately 50 Ci/mmol, was from NEN-Dupont (Boston, Mass.) and cold 1-alkyl-2-lyso-GPC was from Biomol (Plymouth Meeting, Pa.). Microsomes were pretreated with desired agents for the desired time (10 minutes) before the addition of [3H]1-alkyl-2-lyso-GPC. The reaction was run for the desired tlime (10 minutes) at 37° C. The reaction was stopped and the lipids extracted by addition of 100 ul of chloroform:methanol (1:2, v/v) followed by 100 ul of chloroform and 100 ul of 1 M KCI. The samples were vortexed and centrifuged at high speed in a microfuge for 2-3 minutes. An aliquot of the chloroform-extracted materials were separated, usually by TLC in chloroform/methanol/acetic acid/water (50:25:8:4, v/v), visualized by radioscanning (Bioscan) and the product, [3H]1-alkyl-2-acyl-GPC, was scraped and quantified by liquid scintillation spectroscopy. […] Other methods can be used to separate substrate from product, including but not limited to column chromatography, affinity chromatography and post reaction derivitization.
Protein concentration were assessed using the protein assay reagents from Bio Rad (Richmond, Calif.).

[2] = tested on: CoA-IT; conditions: literature, background; cited from earlier work
[3] = tested on: neoplastic cell lines; conditions: literature, background; several neoplastic cell lines; cited from earlier work

## O=S1(=O)CCn2c1nc(-c1ccc(F)cc1)c2-c1ccncc1 [6-(4′-Fluorophenyl)-5-(4-pyridyl)2,3-dihydroimidzo-[2,1-b]thiazole-dioxide]
[1]; at concentrations up to 100 μM
  effect on CoA-IT activity: no effect

## Fc1ccc(-c2nc3n(c2-c2ccncc2)CCS3)cc1 [6-(4′-Fluorophenyl)-5-(4-pyridyl)-2,3-dihydroimidzo-[2,1-b]thiazole]
[1]; at concentrations up to 100 μM
  effect on CoA-IT activity: no effect

## Cc1cc(C(C)(C)C)c(O)c(C(C)(C)C)c1 [BHT]
[1]; at concentrations up to 100 μM
  effect on CoA-IT activity: no effect

## CN(C)CCC=C1c2ccccc2COc2ccccc21 [Doxepine]
[1]; at concentrations up to 100 μM
  effect on CoA-IT activity: did not inhibit

## CCCCCCCCCCCCCCCCCCOCC(COP(=O)([O-])OCC[N+](C)(C)C)OC (stereo not drawn) [ET-18-0-CH3, 1-0-octadecyl-2-0-methyl-phosphocholine]
[2]
  inhibition of CoA-IT: potent inhibitor
[3]
  antiproliferative / apoptosis effect: attenuate cell proliferation and induce apoptosis

## COC(=O)CCCO[C@@H]1NC(=O)[C@H]1NC(c1ccccc1)(c1ccccc1)c1ccccc1 [Example 17, (3S,4S)-4-[3-(Methoxycarbonyl)propoxy]-3-(triphenylmethylamino)azetidin-2-one]
[1]; increased uM or longer pretreatment time
  activity in microsomal CoA-IT assay under other conditions: active at either increased uM or longer pretreatment time

## O=C(Nc1ccc(Cl)c(C(F)(F)F)c1)Nc1cc(C(F)(F)F)ccc1Oc1cc(Cl)c(Cl)cc1S(=O)(=O)O [SK&F 45905, 2-[2-[3-(4-Chloro-3-trifluoromethylphneyl)ureido]-4-tifluromethylphenoxy]-4,5-dichlorobenzene sulfonic acid]
[2]
  inhibition of CoA-IT: capable of inhibiting CoA-IT
[3]
  antiproliferative / apoptosis effect: possess antiproliferative properties

## CCOP(=O)(CCCCCCCn1c(-c2ccccc2)c(-c2ccccc2)n(-c2ccccc2)c1=O)OCC [SK&F 98625, Diethyl 7-(3,4,5-triphenyl-2-oxo-2,3-dihydroimidazol-1yl)heptane phosphonate]
[2]
  inhibition of CoA-IT: capable of inhibiting CoA-IT
[3]
  antiproliferative / apoptosis effect: possess antiproliferative properties

## COc1cccc2c1cc([N+](=O)[O-])c1c(C(=O)O)cc3c(c12)OCO3 [aristolochic acid]
[1]; at concentrations up to 500 μM
  effect on CoA-IT activity: no effect

## COc1ccc2c(c1)c(CC(=O)O)c(C)n2C(=O)c1ccc(Cl)cc1 [indomethicin]
[1]; at concentrations up to 100 μM
  effect on CoA-IT activity: no effect

## COc1ccc2cc([C@H](C)C(=O)O)ccc2c1 [naproxen]
[1]; at concentrations up to 100 μM
  effect on CoA-IT activity: no effect

## CCN(CC)CCCC(C)Nc1c2ccc(Cl)cc2nc2ccc(OC)cc12 (stereo not drawn) [quinacrine]
[1]; at concentrations up to 500 μM
  effect on CoA-IT activity: no effect
